Consider 16 molecules from patent US20250346938A1, “ATP-DEPENDENT C-TERMINAL MODIFICATION OF POLYPEPTIDES” (Wisconsin Alumni Research Foundation, priority 2024, published 2025).

Ends that are not written are not given here. Where only a bound is given, the exact number is not on record here.

Data set [1] has as its system M ccB. Nature of the data set: Screening nucleophiles for MccB-mediated modification of MccA-N7G (LC-TOF MS). The class given is biochemical, E. coli. The note with it: HPLC-MS. The procedure:
Screening nucleophiles for MccB-mediated ligation of synthetic peptide substrates. Nucleophile were dissolved in water and adjusted to neutral pH using paper pH strips (EM D Millipore). Solutions were stored at −80° C. until further use, unless otherwise noted. M ccA-N7G (250 μM) was incubated with 5 μM MccB, 5 mM ATP, and the corresponding concentration of nucleophile in reaction buffer (25 mM Tris pH 8.0, 10 mM M gCl2). Reactions were incubated for 16 hours at room temperature and quenched with addition of an equivalent volume of 0.6% TFA. […] Extracted ion chromatogram (EIC) peak areas were calculated using Agilent TOF Quantitative Analysis v11.0. Percent conversion of substrate to nucleophile-modified product was calculated using the integrated peak areas from the substrate peptide EIC and production EIC using the formula shown below.

The test system of data set [2] is E. coli M ccB. The data set is described as follows: LC-TOF MS analysis of MccB-catalyzed AMPylation of MccA variants. The note with it: for formation of stably AMPylated product: HPLC-MS assay. The class given is biochemical. The procedure:
LC-TOF MS analysis of M ccB reactions with synthetic peptide substrates. […] Reactions were incubated for 16 hours at room temperature and quenched with addition of an equivalent volume of 0.6% TFA. These reaction conditions were used for M ccBs from E. coli, H. pylori, L. johnsonii, and H. somni.
LC-TOF MS analysis of M ccB-catalyzed N-AM Pylation of M ccA positional scanning peptide library. MccA variants were synthesized individually in-house (according to Solid-phase peptide synthesis) or were purchased from Peptide2.0. […] Reactions were incubated for 16 hours at room temperature and quenched with addition of an equivalent volume of 0.6% TFA. […] Percent conversion was calculated using peak areas from substrate and product EICs. Raw data are available in the Dryad repository at DOI: 10.5061/dryad.c59zw3rkb.

The test system of data set [3] is E. coli M ccB. The data set is described as follows: Enzyme-coupled pyrophosphate (PPi) release assay, E. coli MccB. To be noted: MccA C-terminal variant as substrate for MccB. The class given is biochemical. The source says: FIG. 31. Enzyme-coupled pyrophosphate assay for detection of M ccB-catalyzed pyrophosphate release. M ccB-catalyzes release of pyrophosphate, which is converted to phosphate by inorganic pyrophosphatase (PPiase). Purine nucleoside phosphorylase (PN Pase) uses phosphate as a substrate to convert 2-amino-6-mercapto-7-methylpurine ribonucleoside (M ESG) to ribose 1-phosphate and 2-amino-6-mercapto-7-methylpurine, which absorbs at 360 nm.
Purine nucleoside phosphorylase (PNP)/inorganic pyrophosphate (IP)-coupled kinetic assays. The kinetics of M ccB-catalyzed adenylation were characterized using an enzyme-coupled assay for detecting formation of pyrophosphate EnzCheck Pyrophosphate Assay Kit (Thermo Fisher Scientific) (FIG. 31). To screen M ccB for adenylation activity with C-terminal variants of MccA, 5 μM of the appropriate MccB variant was incubated with 0.25 mM of each M ccA variant in a reaction with 0.25 mM ATP, 5 mM M gCl2, 0.5 U/mL purine nucleoside phosphorylase (PNP), and 0.5 U/mL inorganic pyrophosphatase (IP). To screen E. coli, H. pylori, and L. johnsonii M ccB homologs for adenylation activity with MccA homologs, 5 μM of the appropriate MccB enzyme was incubated with 0.25 mM of each M ccA variant in a reaction with 0.25 mM ATP, 5 mM M gCI2, 0.5 U/mL purine nucleoside phosphorylase (PNP), and 0.5 U/mL inorganic pyrophosphatase (IP). Reactions containing HpM ccA-N7G and LjM ccA-N 7G peptides also contained 5 mM M esna and 5 mM TCEP. To collect steady-state kinetics data for individual peptide substrates, the peptide concentration was varied from 0-600 μM in a reaction with 5 μM MccB, 0.25 mM ATP, 5 mM MgCl2, 0.5 U/mL purine nucleoside phosphorylase (PNP), and 0.5 U/mL inorganic pyrophosphatase (IP). […] We therefore repeated measurements for the MccA-N7G peptide using an MccB concentration of […] and a substrate concentration range from 0-100 μM. Reactions were initiated with the addition of M ccB and absorbance at 360 nm was monitored using a Tecan Infinite M 200 plate reader. Initial rates of pyrophosphate production were calculated based on the initial rate of absorbance change and the resulting purine analog extinction coefficient (11,000 M-1 cm-1). Reactions were carried out in triplicate and data analysis was performed using GraphPad Prism 10.

Data set [4] concerns HpM ccB. Nature of the data set: C-terminal thioesterification of MccA-N7G peptides by H. pylori MccB (LC-MS). The class given is biochemical. The note with it: HpMccB, ATP, Mesna, 16 h.
HpM ccB, sequence (as listed by the source): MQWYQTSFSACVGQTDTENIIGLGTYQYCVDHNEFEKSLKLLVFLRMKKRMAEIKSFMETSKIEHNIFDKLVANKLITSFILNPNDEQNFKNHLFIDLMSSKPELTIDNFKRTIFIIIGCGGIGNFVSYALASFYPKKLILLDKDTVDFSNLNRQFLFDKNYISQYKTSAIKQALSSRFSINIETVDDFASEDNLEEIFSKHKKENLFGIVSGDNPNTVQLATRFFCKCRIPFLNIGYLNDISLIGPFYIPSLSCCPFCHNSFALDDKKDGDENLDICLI
Data set [5] concerns HsM ccB. The data set is described as follows: H. somni MccB-catalyzed peptide thioester synthesis. The class given is biochemical. To be noted: for thioesterification: Mesna as thiol donor. Here is the method:
Reactions were incubated for 16 hours at room temperature and quenched with addition of an equivalent volume of 0.6% TFA. […] To screen the ability of H. somni M ccB to catalyze thioesterification of HsLACE peptides, reactions contained M ccB ([…]), ATP (5 mM), M gCl2 (5 mM), peptide substrate (0.25 mM), 25 mM M esna or AcCysNHM e, and reaction buffer (100 mM HEPES, pH 8.0).
H. somni M ccB-catalyzed peptide thioester synthesis. For screening the activity of HsM ccB on HsTeCH, HsLACE1-4, and LACE substrate peptide, […] reactions were prepared that contained 100 mM HEPES, pH 8.0, HsM ccB ([…]), HsTeCH, HsLACE1-4, or LACE peptide ([…]), ATP (5 mM), M gCl2 (5 mM), and thiol (M esna or AcCysNHMe, 25 mM). Reactions were initiated by addition of HsM ccB and incubated for 16-20 h at room temperature. Raw data are available in the Dryad repository at DOI: 10.5061/dryad.c59zw3rkb.

In data set [6] the test system is M ccB. The data set is described as follows: MccB-catalyzed C-terminal thioesterification / Cys ligation of TeCH-tag fusion proteins (intact protein LC-MS). The class given is biochemical, E. coli. To be noted: ATP (5 mM), Mesna (5 mM). The procedure:
M ccB-mediated ligation of GFP-MccA-N7G protein substrates. GFP-M ccA-N7G variant (50 μM) was incubated with 5 μM MccB, 5 mM ATP, and the appropriate concentration of cysteine or Mesna/TCEP in reaction buffer (25 mM Tris pH 8.0, 10 mM M gCl2). Reactions were incubated at room temperature for the indicated times. For labeling time course experiments, reactions were quenched with the addition of an equivalent volume of 0.6% TFA.

For Cys-Trp, in data set [1], the “capture of O-AMPylated intermediate / modification of MccA-N7G C terminus by nucleophile” value is given as “no modification”. Turning to “MccA-N7S: E. coli MccA (MRTGNAN) with C-terminal Asn varied to Ser (MRTGNAS)”, the “formation of stably AMPylated product” value in data set [2] is “no stably A M Pylated product was observed”. In addition, the “stimulation of PPi formation” value in data set [3] was “substantial stimulation”.

As for M KLSY RG (MKLSYRG) [HpM ccA-N7G], the “conversion to C-terminal thioester, yield” value in data set [4] is given as more than 97%. With `O=C(O)Cc1ccc(S)cc1` [M PAA, 4-mercaptophenylacetic acid], the “capture of O-AMPylated intermediate / modification of MccA-N7G C terminus by nucleophile” value in data set [1] is reported as “inability”.

Regarding “MLRLRGG (listed as Histophilus somni) [HsLACE4]”, the thioesterification in data set [5] was less than 1%. For `Cl.NO` [hydroxylamine, hydroxylamine hydrochloride], in data set [1], the “capture of O-AMPylated intermediate / modification of MccA-N7G C terminus by nucleophile” value is reported as “efficient capture”.

For `CNC(=O)[C@H](CS)NC(C)=O` [A cCysNHM e], the “thiol donor for HsMccB-catalyzed thioesterification” value in data set [5] is listed as “poor thiol donor”. In data set [5], “LRLRGG (not fully specified (C-terminus))” had a thioesterification of 18%. Consider “MHRIMKN (listed as Lactobacillus johnsonii) [LjM ccA, at b127 probably the N7G variant is meant, reference compound]”, for which the “conversion to C-terminal thioester, yield” value in data set [4] came to 13%.

With `C#CCCNC(=O)c1ccc(CCNN)cc1` [N-(but-3-yn-1-yl)-4-(2-hydrazineylethyl)benzamide], the “capture of O-AMPylated intermediate / modification of MccA-N7G C terminus by nucleophile” value in data set [1] is recorded as “unable to modify”. For the molecule “MRTGNAN (listed as Escherichia coli) [wild-type M ccA, reference compound]”, the “formation of C-terminally N-AMPylated phosphoramidate product” value in data set [2] (positional scanning library, 16 h) is “fully converted”. For “MccA-N7A: E. coli MccA (MRTGNAN) with C-terminal Asn varied to Ala (MRTGNAA)”, the “formation of stably AMPylated product” value in data set [2] is given as “no stably A M Pylated product was observed”. In addition, the “stimulation of PPi formation” value in data set [3] was “substantial stimulation”.

Consider “MccA-N7T: E. coli MccA (MRTGNAN) with C-terminal Asn varied to Thr (MRTGNAT)”, for which the “formation of stably AMPylated product” value in data set [2] is recorded as “no stably A M Pylated product was observed”. For the same molecule, in data set [3], the “stimulation of PPi formation” value is listed as “substantial stimulation”.

B1: a-GFP rAb (protein)
light: SDIQMTQSPSSLSASVGDRVTITCRASQSVSSAVAWYQQKPGKAPKLLIYSASSLYSGVPSRFSGSRSGTDFTLTISSLQPEDFATYYCQQSWGLITFGQGTKVEIKRTVAAPSVFIFPPSDSQLKSGTASVVCLLNNFYPREAKVQWKVDNALQSGNSQESVTEQDSKDSTYSLSSTLTLSKADYEKHKVYACEVTHQGLSSPVTKSFNRGEC
heavy: EISEVQLVESGGGLVQPGGSLRLSCAASGFNISYYSIHWVRQAPGKGLEWVASIYPYYSSTSYADSVKGRFTISADTSKNTAYLQMNSLRAEDTAVYYCARAGWVASSGMDYWGQGTLVTVSSASTKGPSVFPLAPSSKSTSGGTAALGCLVKDYFPEPVTVSWNSGALTSGVHTFPAVLQSSGLYSLSSVVTVPSSSLGTQTYICNVNHKPSNTKVDKKVEPKSCGGGGGMRTGNAGAFAGAGSK
modifications: non-natural residues; cyclised or stapled
As for B1, the “time to complete conversion to thioester” value in data set [6] came to 16 h.

B2: protein L: protein L with C-terminal TeCH-tag (SEQ ID NO: 75) (protein)
chain: MHHHHHHKEETPETPETDSEEEVTIKANLIFANGSTQTAEFKGTFEKATSEAYAYADTLKKDNGEYTVDVADKGYTLNIKFAGKEKTPEEPKEEVTIKANLIYADGKTQTAEFKGTFEEATAEAYRYADALKKDNGEYTVDVADKGYTLNIKFAGKEKTPEEPKEEVTIKANLIYADGKTQTAEFKGTFEEATAEAYRYADLLAKENGKYTVDVADKGYTLNIKFAGKEKTPEEPKEEVTIKANLIYADGKTQTAEFKGTFAEATAEAYRYADLLAKENGKYTADLEDGGYTINIRFAGKKVDEKPEEKEQVTIKENIYFEDGTVQTATFKGTFAEATAEAYRYADLLSKEHGKYTADLEDGGYTINIRFAGGGGSGGGSMRTGNAG
modifications: C-terminal TeCH-tag; Linker and MccB recognition sequence
Consider B2, for which the “time to complete conversion to thioester” value in data set [6] came out at 16 h.

B3: PTP 1B 1-321: catalytic domain of protein tyrosine phosphatase 1B with TeCH-tag (SEQ ID NO: 76) (protein)
chain: MGHHHHHHDYDIPTTENLYFQGSMEMEKEFEQIDKSGSWAAIYQDIRHEASDFPCRVAKLPKNKNRNRYRDVSPFDHSRIKLHQEDNDYINASLIKMEEAQRSYILTQGPLPNTCGHFWEMVWEQKSRGVVMLNRVMEKGSLKCAQYWPQKEEKEMIFEDTNLKLTLISEDIKSYYTVRQLELENLTTQETREILHFHYTTWPDFGVPESPASFLNFLFKVRESGSLSPEHGPVVVHCSAGIGRSGTFCLADTCLLLMDKRKDPSSVDIKKVLLEMRKFRMGLIQTADQLRFSYLAVIEGAKFIMGDSSVQDQWKELSHEDLEPPPEHIPPPPRPPKRILEPHNGGGGMRTGNAG
modifications: TeCH-tag; N-terminal His tag and TEV protease cleavage site sequence; Linker and MccB recognition sequence
Take B3: the “time to complete conversion to thioester” value in data set [6] stood at 1 h.
